In PubChem BioAssay (NCI):
Where “and” joins values, the source holds several entries; their conditions need not be identical. Equal entries are not always repeated.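 Following 48 hours of exposure in 96-well plates, responses at five concentrations were used to interpolate endpoints linearly. The concentration for 50% growth inhibition is given as GI50. TGI is the concentration that stops growth completely.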

Key:
Experiment in all cases: NCI-60 cell line screen, 48 h
A498 renal = system: A498 renal
CCRF-CEM leukemia = system: CCRF-CEM leukemia
HCC-2998 colon = system: HCC-2998 colon
HCT-15 colon = system: HCT-15 colon
HL-60(TB) leukemia = system: HL-60(TB) leukemia
HS 578T breast = system: HS 578T breast
IGROV1 ovarian = system: IGROV1 ovarian
OVCAR-3 ovarian = system: OVCAR-3 ovarian
PC-3 prostate = system: PC-3 prostate
UO-31 renal = system: UO-31 renal

CCc1cc2c(cc1N1CCC(N3CCOCC3)CC1)C(C)(C)c1[nH]c3cc(C#N)ccc3c1C2=O
GI50 (A498 renal): 0.817 µM and 0.867 µM and 1.59 µM
TGI (A498 renal): 4.02 µM and 4.95 µM and > 10 µM
GI50 (CCRF-CEM leukemia): 0.745 µM and 0.826 µM and 1.54 µM
TGI (CCRF-CEM leukemia): > 100 µM
GI50 (HCC-2998 colon): 4.33 µM and 3.73 µM
TGI (HCC-2998 colon): > 43.7 µM and 17.8 µM and > 10 µM
GI50 (HCT-15 colon): 2.02 µM and 1.35 µM and 1.14 µM
TGI (HCT-15 colon): > 33.4 µM and 10.6 µM and 3.75 µM
GI50 (HL-60(TB) leukemia): 1.7 µM and 1.02 µM and 0.443 µM
TGI (HL-60(TB) leukemia): > 100 µM
GI50 (HS 578T breast): 1.21 µM and 1.51 µM and 0.53 µM
TGI (HS 578T breast): 4.88 µM and 5.56 µM and 4.22 µM
GI50 (IGROV1 ovarian): 2.48 µM and 1.45 µM and 0.772 µM
TGI (IGROV1 ovarian): 16.7 µM and 5.16 µM and 4 µM
GI50 (OVCAR-3 ovarian): 1.68 µM and 1.65 µM
TGI (OVCAR-3 ovarian): 4 µM and 3.42 µM and 3.91 µM
GI50 (PC-3 prostate): 0.921 µM and 0.653 µM and 0.738 µM
TGI (PC-3 prostate): > 36.1 µM and 14.6 µM and > 10 µM
GI50 (UO-31 renal): 1.23 µM and 1.13 µM and 1 µM
TGI (UO-31 renal): 3.12 µM and 2.75 µM and 2.72 µM

COc1cc(-c2ncn(/C=C\C(=O)OC(C)C)n2)cc(C(F)(F)F)c1
GI50 (A498 renal): 0.0364 µM and < 0.0144 µM
TGI (A498 renal): 0.673 µM and 0.0916 µM
GI50 (CCRF-CEM leukemia): 0.0362 µM and 0.0446 µM
TGI (CCRF-CEM leukemia): 36.1 µM and 12.5 µM
GI50 (HCC-2998 colon): 0.102 µM and 0.659 µM
TGI (HCC-2998 colon): 1.41 µM and 3.82 µM
GI50 (HCT-15 colon): 0.0715 µM and 0.0543 µM
TGI (HCT-15 colon): 7.93 µM and 6.39 µM
GI50 (HL-60(TB) leukemia): 0.0515 µM and 0.051 µM
TGI (HL-60(TB) leukemia): 4.58 µM and 4.07 µM
GI50 (HS 578T breast): 0.254 µM and 0.243 µM
TGI (HS 578T breast): > 65.9 µM and 6.71 µM
GI50 (IGROV1 ovarian): 0.503 µM and 0.171 µM
TGI (IGROV1 ovarian): 15.8 µM and 15.6 µM
GI50 (OVCAR-3 ovarian): 0.0406 µM and 0.0353 µM
TGI (OVCAR-3 ovarian): 1.29 µM and 0.857 µM
GI50 (PC-3 prostate): 0.106 µM and 0.0584 µM
TGI (PC-3 prostate): 14.9 µM and 12.8 µM
GI50 (UO-31 renal): 0.0569 µM and 0.0489 µM
TGI (UO-31 renal): 4.18 µM and 11.7 µM

O=C(NCc1ccncc1)C12CC3CC(C1)CC(c1ccc(Cl)cc1)(C3)C2
GI50 (A498 renal): 7.85 µM
TGI (A498 renal): 20.8 µM
GI50 (CCRF-CEM leukemia): 17.7 µM
TGI (CCRF-CEM leukemia): 45 µM
GI50 (HCC-2998 colon): 14.3 µM
TGI (HCC-2998 colon): 29.4 µM
GI50 (HCT-15 colon): 12.1 µM
TGI (HCT-15 colon): 25.2 µM
GI50 (HL-60(TB) leukemia): 5.58 µM
TGI (HL-60(TB) leukemia): 27.1 µM
GI50 (HS 578T breast): 12.9 µM
TGI (HS 578T breast): 31.7 µM
GI50 (IGROV1 ovarian): 13.3 µM
TGI (IGROV1 ovarian): 29.3 µM
GI50 (OVCAR-3 ovarian): 13.2 µM
TGI (OVCAR-3 ovarian): 27.3 µM
GI50 (PC-3 prostate): 8.86 µM
TGI (PC-3 prostate): 23.1 µM
GI50 (UO-31 renal): 10.2 µM
TGI (UO-31 renal): 22 µM

NC1=NCCN1CC(=O)O
GI50 (A498 renal): > 10000 µM
TGI (A498 renal): > 10000 µM
GI50 (CCRF-CEM leukemia): > 10000 µM
TGI (CCRF-CEM leukemia): > 10000 µM
GI50 (HCC-2998 colon): > 10000 µM
TGI (HCC-2998 colon): > 10000 µM
GI50 (HCT-15 colon): > 10000 µM
TGI (HCT-15 colon): > 10000 µM
TGI (HL-60(TB) leukemia): > 1000 µM
GI50 (HS 578T breast): > 1000 µM
TGI (HS 578T breast): > 10000 µM
GI50 (IGROV1 ovarian): > 10000 µM
TGI (IGROV1 ovarian): > 10000 µM
GI50 (OVCAR-3 ovarian): > 10000 µM
TGI (OVCAR-3 ovarian): > 10000 µM
GI50 (PC-3 prostate): > 10000 µM
TGI (PC-3 prostate): > 10000 µM
GI50 (UO-31 renal): > 10000 µM
TGI (UO-31 renal): > 10000 µM

Cc1ccc(-c2nc(N3CCCNCC3)c3oc(-c4ccccc4)nc3n2)cc1
GI50 (A498 renal): 1.66 µM
TGI (A498 renal): 3.16 µM
GI50 (CCRF-CEM leukemia): 1.31 µM
TGI (CCRF-CEM leukemia): 3.13 µM
GI50 (HCC-2998 colon): 1.82 µM
TGI (HCC-2998 colon): 3.27 µM
GI50 (HCT-15 colon): 1.4 µM
TGI (HCT-15 colon): 2.77 µM
GI50 (HL-60(TB) leukemia): 1.35 µM
TGI (HL-60(TB) leukemia): 3.17 µM
GI50 (HS 578T breast): 1.94 µM
TGI (HS 578T breast): 4.22 µM
GI50 (IGROV1 ovarian): 1.67 µM
TGI (IGROV1 ovarian): 3.24 µM
GI50 (OVCAR-3 ovarian): 1.83 µM
TGI (OVCAR-3 ovarian): 3.38 µM
GI50 (PC-3 prostate): 1.57 µM
TGI (PC-3 prostate): 3 µM
GI50 (UO-31 renal): 1.49 µM
TGI (UO-31 renal): 2.85 µM

CCN(CC)CCCC(C)N=c1cc(Nc2cc(=NC(C)CCCN(CC)CC)c3cc(OC)ccc3o2)oc2ccc(OC)cc12 (stereo not drawn)
GI50 (A498 renal): 1.15 µM
TGI (A498 renal): 7.83 µM
GI50 (CCRF-CEM leukemia): 2 µM
TGI (CCRF-CEM leukemia): 16.3 µM
GI50 (HCC-2998 colon): 1.85 µM
TGI (HCC-2998 colon): 7.14 µM
GI50 (HCT-15 colon): 0.851 µM
TGI (HCT-15 colon): 2.33 µM
GI50 (HL-60(TB) leukemia): 2.66 µM
TGI (HL-60(TB) leukemia): 13.2 µM
GI50 (HS 578T breast): 3.33 µM
TGI (HS 578T breast): 14.8 µM
GI50 (IGROV1 ovarian): 1.89 µM
TGI (IGROV1 ovarian): 8.72 µM
GI50 (OVCAR-3 ovarian): 1.29 µM
TGI (OVCAR-3 ovarian): 2.92 µM
GI50 (PC-3 prostate): 1.49 µM
TGI (PC-3 prostate): 6.8 µM
GI50 (UO-31 renal): 0.874 µM
TGI (UO-31 renal): 4.9 µM

COC(=O)/C=C/c1cn(C(C)=O)c2ccc(Br)cc12
GI50 (A498 renal): 20.9 µM
TGI (A498 renal): 45.7 µM
GI50 (CCRF-CEM leukemia): 1.44 µM
TGI (CCRF-CEM leukemia): > 100 µM
GI50 (HCC-2998 colon): 21.8 µM
TGI (HCC-2998 colon): 64.8 µM
GI50 (HCT-15 colon): 23.4 µM
TGI (HCT-15 colon): > 100 µM
GI50 (HL-60(TB) leukemia): 15.3 µM
TGI (HL-60(TB) leukemia): > 100 µM
GI50 (HS 578T breast): 22 µM
TGI (HS 578T breast): 76.2 µM
GI50 (IGROV1 ovarian): 19.1 µM
TGI (IGROV1 ovarian): > 100 µM
GI50 (OVCAR-3 ovarian): 23.9 µM
TGI (OVCAR-3 ovarian): > 100 µM
GI50 (PC-3 prostate): 28 µM
TGI (PC-3 prostate): > 100 µM
GI50 (UO-31 renal): 8.73 µM
TGI (UO-31 renal): 48.5 µM

CC(=O)[C@@]1(O)[C@H](C)C[C@H]2[C@@H]3C=C(C)C4=Cc5c(cnn5-c5ccccc5)C[C@]4(C)[C@H]3[C@@H](O)C[C@@]21C
GI50 (A498 renal): 3.45 µM
TGI (A498 renal): 14.7 µM
TGI (CCRF-CEM leukemia): 1.72 µM
GI50 (HCC-2998 colon): 2.13 µM
TGI (HCC-2998 colon): 5.73 µM
GI50 (HCT-15 colon): 0.81 µM
TGI (HCT-15 colon): 2.66 µM
GI50 (HL-60(TB) leukemia): 3.62 µM
TGI (HL-60(TB) leukemia): 41.9 µM
GI50 (HS 578T breast): 2.97 µM
TGI (HS 578T breast): 12.9 µM
GI50 (IGROV1 ovarian): 2.64 µM
TGI (IGROV1 ovarian): 11 µM
GI50 (OVCAR-3 ovarian): 2.08 µM
TGI (OVCAR-3 ovarian): 4.84 µM
GI50 (PC-3 prostate): 2.06 µM
TGI (PC-3 prostate): 10.1 µM
GI50 (UO-31 renal): 2.08 µM
TGI (UO-31 renal): 7.03 µM

Cc1cc(Oc2ccc3nc(COc4ccc(CC5SC(=O)NC5=O)cc4)n(C)c3c2)cc(C)c1N (stereo not drawn)
GI50 (A498 renal): > 43.4 µM
TGI (A498 renal): > 100 µM
GI50 (CCRF-CEM leukemia): 30.9 µM
TGI (CCRF-CEM leukemia): > 100 µM
GI50 (HCC-2998 colon): 54.9 µM
TGI (HCC-2998 colon): > 100 µM
GI50 (HCT-15 colon): 29.1 µM
TGI (HCT-15 colon): > 87.8 µM
GI50 (HL-60(TB) leukemia): 26.8 µM
TGI (HL-60(TB) leukemia): 88 µM
GI50 (HS 578T breast): > 57.3 µM
TGI (HS 578T breast): > 100 µM
GI50 (IGROV1 ovarian): > 64.3 µM
TGI (IGROV1 ovarian): > 100 µM
GI50 (OVCAR-3 ovarian): 28 µM
TGI (OVCAR-3 ovarian): > 70.9 µM
GI50 (PC-3 prostate): 31.8 µM
TGI (PC-3 prostate): > 90.1 µM
GI50 (UO-31 renal): 24.8 µM
TGI (UO-31 renal): > 81.6 µM

N#CS.N=C=S.N=C=S.[Cu+2].[NH2-].[NH2-].[NH2-].[NH2-].c1ccc2ncccc2c1
GI50 (A498 renal): 28.4 µM
TGI (A498 renal): 51 µM
GI50 (CCRF-CEM leukemia): 24.3 µM
TGI (CCRF-CEM leukemia): 57.5 µM
GI50 (HCC-2998 colon): 83.9 µM
TGI (HCC-2998 colon): > 100 µM
GI50 (HCT-15 colon): > 100 µM
TGI (HCT-15 colon): > 100 µM
GI50 (HL-60(TB) leukemia): > 100 µM
TGI (HL-60(TB) leukemia): > 100 µM
GI50 (HS 578T breast): 29.4 µM
TGI (HS 578T breast): > 100 µM
GI50 (IGROV1 ovarian): 55.7 µM
TGI (IGROV1 ovarian): > 100 µM
GI50 (OVCAR-3 ovarian): 21.3 µM
TGI (OVCAR-3 ovarian): 41.8 µM
GI50 (PC-3 prostate): > 100 µM
TGI (PC-3 prostate): > 100 µM
GI50 (UO-31 renal): 60.7 µM
TGI (UO-31 renal): > 100 µM
